Experimental data: US10760110B2, “Antibiotic testing and screening system” (priority 2017, dated 2020)
In brackets after ≈: the same amount, converted by molar mass. Like-named read-outs stand apart in the source and are kept apart here.

Legend:
[1] = test system: K. pneumoniae NVT1001 ΔramRΔompK35/36 mutant and its revertants; test: Etest MIC, ΔramRΔompK35/36 mutant and its revertants (Table 7); assay type: cell-based; settings: Klebsiella pneumoniae
Excerpt: The allelic-exchange method was used to restore the wild-type gene in the K. pneumoniae NVT1001 mutants with constructed chromosome-mediated resistance mechanisms, as described by Tsai et al.^19 Briefly, a DNA fragment of the entire wild-type gene sequence along with flanking regions was amplified from K. pneumoniae NVT1001 using PCR with specific primers. The resulting PCR fragment was digested and then cloned into pUT-KB. For homologous recombination, this plasmid was transformed into E. coli S17-1 λpir^23 via electroporation and mobilized into the K. pneumoniae NVT1001 mutant via conjugation. […] After incubation in 20 mL BHI broth for 6 hours at 37° C. in the absence of kanamycin, the fully grown cultures were spread onto LB agar plates supplemented with 10% sucrose. After the double crossover occurred, the sucrose-resistant and kanamycin-susceptible colonies were selected, and the restoration of the wild-type gene was confirmed via DNA sequencing.
(§1) The MICs of antibiotics were determined using the Etest (Biodisk AB, Sweden) according to the manufacturer's instructions. The MICs from the Etest, which fall between standard two-fold dilutions, were rounded up to the next highest two-fold value. The MICs of ceftazidime and cefotaxime against K. pneumoniae NVT1001 harbouring the pACYC177 plasmid with blaOXA-48 were further determined using a broth microdilution test according to the recommendations of the CLSI,^25 and the results were interpreted according to the breakpoints established by the CLSI in 2017.^25 Meanwhile, due to the lack of CLSI breakpoints in 2016 and 2017, the results for cephalothin were interpreted according to the breakpoints established by the CLSI in 2015,^26 and the results for moxifloxacin were interpreted according to the breakpoints established by the EUCAST in 2017.^27

[2] = test system: K. pneumoniae NVT1001 and its ΔompK35/36 and/or ΔramR mutants; test: Etest MIC, OmpK35/36 loss and AcrAB-TolC overexpression (ΔramR) strains (Table 6); assay type: cell-based, Klebsiella pneumoniae
Experimental: as §1

[3] = ΔramRΔompK35/36::ompK35/36 revertant
[4] = ΔramRΔompK35/36::ompK35 revertant
[5] = ΔramRΔompK35/36::ompK36 revertant
[6] = ΔramRΔompK35/36::ramR revertant
[7] = ΔramRΔompK35/36::ramR::ompK35/36 revertant
[8] = ΔramRΔompK35/36::ramR::ompK35 revertant
[9] = ΔramRΔompK35/36::ramR::ompK36 revertant
[10] = Klebsiella pneumoniae, WT, NVT1001, read-out: MIC
[11] = Klebsiella pneumoniae, Δ35, ΔompK35 mutant
[12] = Klebsiella pneumoniae, Δ35/36, ΔompK35/36 mutant
[13] = Klebsiella pneumoniae, Δ36, ΔompK36 mutant
[14] = Klebsiella pneumoniae, ΔramR mutant
[15] = Klebsiella pneumoniae, ΔramRΔ35, ΔramRΔompK35 mutant
[16] = Klebsiella pneumoniae, ΔramRΔ35/36, ΔramRΔompK35/36 mutant
[17] = Klebsiella pneumoniae, ΔramRΔ36, ΔramRΔompK36 mutant
[18] = ΔramRΔ35/36, ΔramRΔompK35/36 mutant

`O=C1CN(/N=C/c2ccc([N+](=O)[O-])o2)C(=O)N1` [Nitrofurantoin] gave an MIC [1, 3] of 256 µg/mL, an MIC [1, 4] greater than 512 µg/mL and an MIC [1, 5] of 256 µg/mL. It also gave an MIC [1, 6] greater than 512 µg/mL, an MIC [1, 7] of 64 µg/mL and an MIC [1, 8] greater than 512 µg/mL. It also gave an MIC [1, 9] of 64 µg/mL, an MIC ([1]; ΔramRΔompK35/36 mutant) greater than 512 µg/mL and an MIC [2, 10] of 64 µg/mL (≈ 269 µM). It also gave an MIC [2, 11] of 64 µg/mL (≈ 269 µM), an MIC [2, 12] greater than 512 µg/mL and an MIC [2, 13] greater than 512 µg/mL. It also gave an MIC [2, 14] of 256 µg/mL (≈ 1070 µM), an MIC [2, 15] of 256 µg/mL (≈ 1070 µM) and an MIC [2, 16] greater than 512 µg/mL. The MIC [2, 17] was greater than 512 µg/mL.

Polymyxin B gave an MIC ([2]; WT, NVT1001) of 2 µg/mL, an MIC ([2]; Δ35, ΔompK35 mutant) of 2 µg/mL and an MIC ([2]; Δ35/36, ΔompK35/36 mutant) of 2 µg/mL. It also gave an MIC ([2]; Δ36, ΔompK36 mutant) of 2 µg/mL, an MIC ([2]; ΔramR mutant) of 1 µg/mL and an MIC ([2]; ΔramRΔ35, ΔramRΔompK35 mutant) of 1 µg/mL. It also gave an MIC [2, 18] of 1 µg/mL and an MIC ([2]; ΔramRΔ36, ΔramRΔompK36 mutant) of 2 µg/mL.

Gentamicin gave an MIC ([2]; WT, NVT1001) of 0.5 µg/mL, an MIC ([2]; Δ35, ΔompK35 mutant) of 0.5 µg/mL and an MIC ([2]; Δ35/36, ΔompK35/36 mutant) of 0.5 µg/mL. It also gave an MIC ([2]; Δ36, ΔompK36 mutant) of 0.5 µg/mL, an MIC ([2]; ΔramR mutant) of 0.5 µg/mL and an MIC ([2]; ΔramRΔ35, ΔramRΔompK35 mutant) of 0.25 µg/mL. For the same compound, the MIC [2, 18] was 0.5 µg/mL and the MIC ([2]; ΔramRΔ36, ΔramRΔompK36 mutant) was 0.5 µg/mL.

Compound `C[C@@H]1O[C@@H]1P(=O)(O)O` [Fosfomycin] has an MIC [1, 3] of 64 µg/mL, an MIC [1, 4] of 512 µg/mL and an MIC [1, 5] of 128 µg/mL. It also gave an MIC [1, 6] of 512 µg/mL, an MIC [1, 7] of 128 µg/mL and an MIC [1, 8] of 256 µg/mL. The MIC [1, 9] was 128 µg/mL, the MIC ([1]; ΔramRΔompK35/36 mutant) was greater than 1020 µg/mL and the MIC [2, 10] was 128 µg/mL (≈ 927 µM). For the same compound, the MIC [2, 11] was 128 µg/mL (≈ 927 µM), the MIC [2, 12] was 512 µg/mL (≈ 3710 µM) and the MIC [2, 13] was 256 µg/mL (≈ 1850 µM). For the same compound, the MIC [2, 14] was 64 µg/mL (≈ 464 µM), the MIC [2, 15] was 128 µg/mL (≈ 927 µM) and the MIC [2, 16] was greater than 1020 µg/mL. For the same compound, the MIC [2, 17] was 512 µg/mL (≈ 3710 µM).

With Colistin the MIC ([2]; WT, NVT1001) was 1 µg/mL, the MIC ([2]; Δ35, ΔompK35 mutant) was 1 µg/mL and the MIC ([2]; Δ35/36, ΔompK35/36 mutant) was 1 µg/mL. It also gave an MIC ([2]; Δ36, ΔompK36 mutant) of 1 µg/mL, an MIC ([2]; ΔramR mutant) of 1 µg/mL and an MIC ([2]; ΔramRΔ35, ΔramRΔompK35 mutant) of 1 µg/mL. For the same compound, the MIC [2, 18] was 1 µg/mL and the MIC ([2]; ΔramRΔ36, ΔramRΔompK36 mutant) was 1 µg/mL.
